Values of other authors, collected in patent publication US20120259154A1, “In Vivo Immunomagnetic Hyperthermia Platform for Any Cell or Virus Having a Target Surface Receptor” (IVDiagnostics, Inc., priority 2011, published 2012).

Settings: following intravenous administration

- t1/2 (clearance from the blood): 3.5 min
Substance: folate-FITC
